Key:
THP1 cells = experiment: Cell-based TR-FRET cGAMP assay in THP1 cells; parameters: species or system human; conditions: Table 6, PMA-differentiated THP1 cells, 90-bp dsDNA transfection 24 h
h-cGAS = h-cGAS (Homo sapiens (Human), UniProt Q8N884); experiment: RapidFire mass spectroscopy assay (cGAMP formation); type: biochemical
THP1-Dual cells = experiment: Cell-based Lucia luciferase assay in THP1-Dual cells; conditions: Homo sapiens, Table 4, 100-bp dsDNA transfection 24 h, secreted luciferase reporting interferon-induced gene expression
Human cGAS = Human cGAS (Homo sapiens (Human), UniProt Q8N884); experiment: cGAS enzyme assay using TR-FRET; type: biochemical; conditions: Table 5; human cGAS 5 nmol/L, 90 bp dsDNA 100 nmol/L, TR-FRET cGAMP detection; read-out: hcGAS enzyme assay
[1] = Table 2, full-length h-cGAS 100 nM, dsDNA 25 nM, ATP and GTP 100 μM, 7 h RT
[2] = Table 3, compounds from related application PCT/US2019/016673, same RapidFire assay

h-cGAS, sequence (Q8N884 whole entry): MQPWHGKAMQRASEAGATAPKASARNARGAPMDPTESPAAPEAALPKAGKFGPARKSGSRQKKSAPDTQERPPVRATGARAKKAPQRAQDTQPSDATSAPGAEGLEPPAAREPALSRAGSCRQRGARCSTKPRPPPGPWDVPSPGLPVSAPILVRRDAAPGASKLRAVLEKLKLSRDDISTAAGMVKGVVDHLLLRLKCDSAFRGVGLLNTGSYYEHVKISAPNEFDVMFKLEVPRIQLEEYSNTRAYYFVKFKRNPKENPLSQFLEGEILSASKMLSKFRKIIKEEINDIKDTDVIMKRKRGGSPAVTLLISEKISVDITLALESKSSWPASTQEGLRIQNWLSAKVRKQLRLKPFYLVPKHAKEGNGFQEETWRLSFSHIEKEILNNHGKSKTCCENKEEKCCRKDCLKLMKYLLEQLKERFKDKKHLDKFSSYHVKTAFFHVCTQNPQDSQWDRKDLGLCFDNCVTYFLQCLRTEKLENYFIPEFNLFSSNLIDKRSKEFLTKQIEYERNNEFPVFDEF
Human cGAS, sequence (Q8N884 whole entry): as above

Compound	IC50 (Human cGAS) [nM]	other results
1-[7,8-Dichloro-10-(1-methyl-1H-pyrazol-3-yl)-3,4-dihydropyrazino[1,2-b]indazol-2(1H)-yl]-2-hydroxyethan-1-one [Example 67]		IC50 (THP1 cells): 140 nM
COc1nc2c3c([nH]c2c(Cl)c1Cl)CCN(C(=O)CO)C3 [Example 1, 1-(3,4-Dichloro-2-methoxy-5,6,7,9-tetrahydro-8H-pyrrolo[3,2-b:4,5-c′]dipyridin-8-yl)-2-hydroxyethan-1-one]	190	IC50 (h-cGAS; [1]): 61.6 nM; IC50 (THP1-Dual cells): 10700 nM; IC50 (THP1 cells; Homo sapiens, THP-1): 2500 nM
COCC(=O)N1CCc2[nH]c3cc(Cl)ncc3c2C1 [Example 2, 1-(7-Chloro-1,3,4,5-tetrahydro-2H-pyrrolo[3,2-c:4,5-c′]dipyridin-2-yl)-2-methoxyethan-1-one]	> 30000	IC50 (h-cGAS; [1]): 2410 nM
COCC(=O)N1CCn2nc3c(Cl)c(Cl)ccc3c2C1 [Example 3, 1-(7,8-Dichloro-3,4-dihydropyrazino[1,2-b]indazol-2(1H)-yl)-2-methoxyethan-1-one]		IC50 (h-cGAS; [1]): 2470 nM
O=C(CO)N1CCn2nc3c(Cl)c(Cl)ccc3c2C1 [Example 4, 1-(7,8-Dichloro-3,4-dihydropyrazino[1,2-b]indazol-2(1H)-yl)-2-hydroxyethan-1-one]	21000	IC50 (h-cGAS; [1]): 1460 nM
COCC(=O)N1CCc2nn3c(Cl)c(Cl)ccc3c2C1 [Example 5, 1-(7,8-Dichloro-3,4-dihydropyrazolo[1,5-a:4,3-c′]dipyridin-2(1H)-yl)-2-methoxyethan-1-one]	> 30000	IC50 (h-cGAS; [1]): 21800 nM
O=C(CO)N1CCc2nn3c(Cl)c(Cl)ccc3c2C1 [Example 6, 1-(7,8-Dichloro-3,4-dihydropyrazolo[1,5-a:4,3-c′]dipyridin-2(1H)-yl)-2-hydroxyethan-1-one]		IC50 (h-cGAS; [1]): 20800 nM
Cn1ccc(-c2nc(Cl)c(Cl)c3[nH]c4c(c23)CN(C(=O)CO)CC4)n1 [Example 25, 1-[6,7-Dichloro-9-(1-methyl-1H-pyrazol-3-yl)-1,3,4,5-tetrahydro-2H-pyrrolo[3,2-c:4,5-c′]dipyridin-2-yl]-2-hydroxyethan-1-one]	95	
COCC(=O)N1CCc2[nH]c3c(Cl)c(Cl)nc(-c4ccn(C)n4)c3c2C1 [Example 30, 1-[6,7-Dichloro-9-(1-methyl-1H-pyrazol-3-yl)-1,3,4,5-tetrahydro-2H-pyrrolo[3,2-c:4,5-c′]dipyridin-2-yl]-2-methoxyethan-1-one]	210	
Cn1ccc(-c2nc(Cl)c(Cl)c3c2c2c(n3C)CCN(C(=O)CO)C2)n1 [Example 34, 1-[6,7-Dichloro-5-methyl-9-(1-methyl-1H-pyrazol-3-yl)-1,3,4,5-tetrahydro-2H-pyrrolo[3,2-c:4,5-c′]dipyridin-2-yl]-2-hydroxyethan-1-one]	150	
Cn1ccc(-c2cc(Cl)c(F)c3nn4c(c23)CN(C(=O)CO)CC4)n1 [Example 64, 1-[8-Chloro-7-fluoro-10-(1-methyl-1H-pyrazol-3-yl)-3,4-dihydropyrazino[1,2-b]indazol-2(1H)-yl]-2-hydroxyethan-1-one]	180	
COCC(=O)N1CCn2nc3c(Cl)c(Cl)cc(-c4ccn(C)n4)c3c2C1 [Example 68, 1-[7,8-Dichloro-10-(1-methyl-1H-pyrazol-3-yl)-3,4-dihydropyrazino[1,2-b]indazol-2(1H)-yl]-2-methoxyethan-1-one]	240	IC50 (THP1 cells; Homo sapiens, THP-1): 330 nM
Cn1ccc(-c2ccc(Cl)c3nn4c(c23)CN(C(=O)CO)CC4)n1 [Example 69, 1-[7-Chloro-10-(1-methyl-1H-pyrazol-3-yl)-3,4-dihydropyrazino[1,2-b]indazol-2(1H)-yl]-2-hydroxyethan-1-one]	280	
Cc1nnc(-c2cc(Cl)c(F)c3nn4c(c23)CN(C(=O)CO)CC4)o1 [Example 70, 1-[8-Chloro-7-fluoro-10-(5-methyl-1,3,4-oxadiazol-2-yl)-3,4-dihydropyrazino[1,2-b]indazol-2(1H)-yl]-2-hydroxyethan-1-one]	7500	
Cc1noc(-c2cc(Cl)c(F)c3nn4c(c23)CN(C(=O)CO)CC4)n1 [Example 71, 1-[8-Chloro-7-fluoro-10-(3-methyl-1,2,4-oxadiazol-5-yl)-3,4-dihydropyrazino[1,2-b]indazol-2(1H)-yl]-2-hydroxyethan-1-one]	1400	
Cn1ccc(-c2ncc(Cl)c3[nH]c4c(c23)CN(C(=O)CO)CC4)n1 [Example 72, 1-[6-Chloro-9-(1-methyl-1H-pyrazol-3-yl)-1,3,4,5-tetrahydro-2H-pyrrolo[3,2-c:4,5-c′]dipyridin-2-yl]-2-hydroxyethan-1-one]	250	

Compound	IC50 (Human cGAS) [nM]	other results
COCC(=O)N1CCc2[nH]c3c(Cl)cnc(-c4ccn(C)n4)c3c2C1 [Example 73, 1-[6-Chloro-9-(1-methyl-1H-pyrazol-3-yl)-1,3,4,5-tetrahydro-2H-pyrrolo[3,2-c:4,5-c′]dipyridin-2-yl]-2-methoxyethan-1-one]	870	
Cn1ccc(-c2ncc(Cl)c3c2c2c(n3C)CCN(C(=O)CO)C2)n1 [Example 74, 1-[6-Chloro-5-methyl-9-(1-methyl-1H-pyrazol-3-yl)-1,3,4,5-tetrahydro-2H-pyrrolo[3,2-c:4,5-c′]dipyridin-2-yl]-2-hydroxyethan-1-one]	290	
COc1nc2c3c([nH]c2c(F)c1Cl)CCN(C(=O)CO)C3 [Example 75, 1-(3-Chloro-4-fluoro-2-methoxy-5,6,7,9-tetrahydro-8H-pyrrolo[3,2-b:4,5-c′]dipyridin-8-yl)-2-hydroxyethan-1-one]	550	
COc1nc2c3c([nH]c2c(Cl)c1Cl)C(C)(C)CN(C(=O)CO)C3 [Example 76, 1-(3,4-Dichloro-2-methoxy-6,6-dimethyl-5,6,7,9-tetrahydro-8H-pyrrolo[3,2-b:4,5-c′]dipyridin-8-yl)-2-hydroxyethan-1-one]	850	
CCOc1nc2c3c([nH]c2c(Cl)c1Cl)CCN(C(=O)CO)C3 [Example 77, 1-(3,4-Dichloro-2-ethoxy-5,6,7,9-tetrahydro-8H-pyrrolo[3,2-b:4,5-c′]dipyridin-8-yl)-2-hydroxyethan-1-one]	3000	
CCOc1nc2c3c([nH]c2c(F)c1Cl)CCN(C(=O)CO)C3 [Example 78, 1-(3-Chloro-2-ethoxy-4-fluoro-5,6,7,9-tetrahydro-8H-pyrrolo[3,2-b:4,5-c′]dipyridin-8-yl)-2-hydroxyethan-1-one]	3700	
O=C(CO)N1CCc2[nH]c3c(Cl)c(Cl)c(OCC4CC4)nc3c2C1 [Example 79, 1-[3,4-Dichloro-2-(cyclopropylmethoxy)-5,6,7,9-tetrahydro-8H-pyrrolo[3,2-b:4,5-c′]dipyridin-8-yl]-2-hydroxyethan-1-one]	5900	
O=C(CO)N1CCc2[nH]c3c(F)c(Cl)c(OCC4CC4)nc3c2C1 [Example 80, 1-[3-Chloro-2-(cyclopropylmethoxy)-4-fluoro-5,6,7,9-tetrahydro-8H-pyrrolo[3,2-b:4,5-c′]dipyridin-8-yl]-2-hydroxyethan-1-one]	5000	
O=C(CO)N1CCc2[nH]c3c(Cl)c(Cl)c(OC(F)F)nc3c2C1 [Example 81, 1-[3,4-Dichloro-2-(difluoromethoxy)-5,6,7,9-tetrahydro-8H-pyrrolo[3,2-b:4,5-c′]dipyridin-8-yl]-2-hydroxyethan-1-one]	2400	
O=C(CO)N1CCc2[nH]c3c(F)c(Cl)c(OC(F)F)nc3c2C1 [Example 82, 1-[3-Chloro-2-(difluoromethoxy)-4-fluoro-5,6,7,9-tetrahydro-8H-pyrrolo[3,2-b:4,5-c′]dipyridin-8-yl]-2-hydroxyethan-1-one]	15000	
N#Cc1ccc2c3c([nH]c2c1C#N)CCN(C(=O)CO)C3 [TDI-006932, reference compound]		IC50 (h-cGAS; [2]): > 25000 nM
O=C(CO)N1CCc2[nH]c3c(Cl)c(Cl)cc(-c4cn[nH]c4)c3c2C1 [TDI-007445, reference compound]		IC50 (h-cGAS; [2]): 27.5 nM
O=C(CO)N1CCc2[nH]c3c(Cl)c(Cl)cc(-c4ccc(NC(=O)C(F)(F)F)cc4)c3c2C1 [TDI-008458, reference compound]		IC50 (h-cGAS; [2]): 629 nM
O=C(CO)N1CCc2[nH]c3c(F)c(Cl)cc(N4CCS(=O)(=O)C4)c3c2C1 [TDI-008867, reference compound]		IC50 (h-cGAS; [2]): 6930 nM; IC50 (THP1-Dual cells): > 10000 nM
Cc1cc(-c2ncn(C)n2)c2c3c([nH]c2c1Cl)CCN(C(=O)CO)C3 [TDI-008989, reference compound]		IC50 (h-cGAS; [2]): 45.9 nM; IC50 (THP1-Dual cells): 6710 nM

From US12522603B2, “Inhibitors of gas for treating autoinflammatory diseases and cancer metastasis” (The Rockefeller University, priority 2019, dated 2026)
